Activity calls are given as the source filed them.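 How the source made its calls: active means parasite count per well reduced by over 3 SD from the mean, with host cell number above 80% of untreated; inactive means the rest.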
The molecules below were run on L. donovani amastigotes in THP-1 macrophages, DAPI imaging, 72 h (assay: L. donovani intracellular amastigote growth inhibitors, imaging, THP-1 host macrophages, single concentration (AID 977614);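 further: signal is the parasite per host cell ratio from DAPI stained kinetoplasts and nuclei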).
With CN(C[C@H]1[C@H](c2ccccc2)[C@@H](CO)N1Cc1ccccn1)S(C)(=O)=O the AC50 was > 10 µM (inactive).
For O=C(c1ccncc1)N1C[C@@H]2[C@H](c3ccccc31)[C@H](CO)N2C(=O)CN1CCOCC1, the AC50 was > 10 µM (inactive).
O=C(Nc1ccc(F)cc1)N1C[C@@H]2[C@H](c3ccccc31)[C@@H](CO)N2C(=O)c1ccncc1 was tested, and the AC50 was > 10 µM (inactive).
In the case of O=C(NC[C@@H]1[C@@H](c2ccccc2)[C@@H](CO)N1Cc1cccnc1)c1ccccn1, the AC50 is reported as > 10 µM (inactive).
With O=C(Nc1ccccc1Cl)N1C[C@@H]2[C@H](c3ccccc31)[C@@H](CO)N2C(=O)c1cccnc1 the AC50 was > 10 µM (inactive).
In the case of C[C@@H]1CN([C@H](C)CO)C(=O)CCCn2cc(nn2)CO[C@@H]1CN(C)S(=O)(=O)c1cccc(C#N)c1, the AC50 is reported as > 10 µM (inactive).
For COc1ccccc1NC(=O)N1C[C@@H]2[C@H](c3ccccc31)[C@@H](CO)N2CC1CCOCC1, the AC50 was > 10 µM (inactive).
With C[C@@H]1CN([C@H](C)CO)C(=O)CCCn2nncc2CO[C@@H]1CN(C)C(=O)Nc1cccc(Oc2ccccn2)c1 the AC50 was > 10 µM (inactive).
In the case of C[C@H]1CN([C@@H](C)CO)C(=O)CCCn2nncc2CO[C@@H]1CN(C)C(=O)Oc1cccc2ccccc12, the AC50 is reported as > 10 µM (inactive).
For COc1ccccc1S(=O)(=O)N(C)C[C@H]1OCc2cn(nn2)CCCC(=O)N([C@H](C)CO)C[C@@H]1C, the AC50 was > 10 µM (inactive).
In the case of C[C@H](CO)N1C[C@H](C)[C@@H](CN(C)Cc2ccccc2C(=O)O)OCc2cnnn2CCCC1=O, the AC50 is reported as > 10 µM (inactive).
Cc1noc(C)c1NC(=O)N(C)C[C@@H]1OCc2cn(nn2)CCCC(=O)N([C@@H](C)CO)C[C@H]1C was tested, and the AC50 was > 10 µM (inactive).
In the case of CC(=O)N1[C@@H](CO)[C@H](c2ccccc2)[C@@H]1CN(CC1CCC1)C(=O)CN(C)C, the AC50 is reported as > 10 µM (inactive).
In the case of CCCN(C[C@H]1N[C@H](CO)[C@@H]1c1ccccc1)C(=O)COC, the AC50 is reported as > 10 µM (inactive).
In the case of C[C@@H]1CN([C@H](C)CO)C(=O)CCCn2nncc2CO[C@@H]1CN(C)Cc1ccc2cccnc2c1, the AC50 is reported as > 10 µM (inactive).
With C[C@H](CO)N1C[C@H](C)[C@@H](CN(C)C(=O)Nc2ccc(-c3cccs3)cc2)OCc2cnnn2CCCC1=O the AC50 was > 10 µM (inactive).
For C[C@H]1CN([C@@H](C)CO)C(=O)CCCn2nncc2CO[C@H]1CN(C)Cc1ccc2c(c1)OCCN2C, the AC50 was > 10 µM (inactive).
For O=C(Cc1cccnc1)N1[C@@H](CO)[C@H](c2ccccc2)[C@@H]1CNCC1CCC1, the AC50 was > 10 µM (inactive).
In the case of CC(=O)NC[C@H]1[C@@H](c2ccc(-c3cccnc3)cc2)[C@@H](CO)N1C(=O)CC1CC1, the AC50 is reported as > 10 µM (inactive).
In the case of CCCC(=O)N1C[C@H]2[C@@H](c3ccccc31)[C@@H](CO)N2C(=O)Nc1ccc(F)cc1, the AC50 is reported as > 10 µM (inactive).
In the case of C[C@@H]1CN([C@H](C)CO)C(=O)CCCn2cc(nn2)CO[C@H]1CN(C)C(=O)c1ccc(N2CCN(C)CC2)cc1, the AC50 is reported as > 10 µM (inactive).
O=C(c1ccccc1F)N1C[C@@H]2[C@H](c3ccccc31)[C@@H](CO)N2C(=O)Nc1ccccc1 was tested, and the AC50 was > 10 µM (inactive).
In the case of C[C@H](CO)N1C[C@H](C)[C@@H](CN(C)C(=O)CCC(F)(F)F)OCc2cnnn2CCCC1=O, the AC50 is reported as > 10 µM (inactive).
With CC(=O)N1[C@H](CO)[C@H](c2ccccc2)[C@@H]1CNC(=O)CN1CCOCC1 the AC50 was > 10 µM (inactive).
For O=C(C1CCOCC1)N1C[C@@H]2[C@H](c3ccccc31)[C@H](CO)N2C(=O)Cc1ccccn1, the AC50 was > 10 µM (inactive).
With OC[C@@H]1[C@H]2c3ccccc3NC[C@H]2N1Cc1cccnc1 the AC50 was > 10 µM (inactive).
For C/C=C/c1ccc([C@@H]2[C@H](CO)N[C@H]2CNS(=O)(=O)c2ccccc2)cc1, the AC50 was > 10 µM (inactive).
With COc1ccc(C(=O)N2C[C@H]3[C@@H](c4ccccc42)[C@@H](CO)N3Cc2ccccc2Cl)cc1 the AC50 was > 10 µM (inactive).
In the case of COCC(=O)N1C[C@H]2[C@@H](c3ccccc31)[C@H](CO)N2Cc1cc(F)ccc1F, the AC50 is reported as > 10 µM (inactive).
With Cc1noc(C)c1NC(=O)N(C)C[C@H]1OCc2cnnn2CCCC(=O)N([C@H](C)CO)C[C@H]1C the AC50 was > 10 µM (inactive).
In the case of C[C@H]1CN([C@@H](C)CO)C(=O)CCCn2cc(nn2)CO[C@@H]1CN(C)C(=O)Nc1cccc2ccccc12, the AC50 is reported as > 10 µM (inactive).
CCC(=O)N1C[C@@H]2[C@H](c3ccccc31)[C@H](CO)N2C(=O)CC1CC1 was tested, and the AC50 was > 10 µM (inactive).
For C[C@@H]1CN([C@H](C)CO)C(=O)CCCn2nncc2CO[C@H]1CN(C)C(=O)Nc1ccnc(N2CCOCC2)c1, the AC50 was > 10 µM (inactive).
CC(=O)N1[C@H](CO)[C@H](c2ccccc2)[C@H]1CN(C(=O)c1ccccc1F)C(C)C was tested, and the AC50 was > 10 µM (inactive).
In the case of O=C(CC(F)(F)F)N1C[C@@H]2[C@H](c3ccccc31)[C@@H](CO)N2Cc1cccnc1, the AC50 is reported as > 10 µM (inactive).
With C[C@H](CO)N1C[C@H](C)[C@@H](CN(C)Cc2ccc(C(=O)Nc3ccccc3N)cc2)OCc2cnnn2CCCC1=O the AC50 was > 10 µM (inactive).
In the case of C[C@@H]1CN([C@H](C)CO)C(=O)CCCn2nncc2CO[C@H]1CN(C)C(=O)CCC(F)(F)F, the AC50 is reported as > 10 µM (inactive).
For O=C(Nc1ccccc1F)N1C[C@H]2[C@@H](c3ccccc31)[C@H](CO)N2C(=O)Cc1cccnc1, the AC50 was > 10 µM (inactive).
In the case of C[C@@H]1CN([C@H](C)CO)C(=O)CCCn2nncc2CO[C@@H]1CN(C)C(=O)Nc1ccc2c(c1)OCCO2, the AC50 is reported as > 10 µM (inactive).
In the case of C/C=C/c1ccc([C@@H]2[C@@H](CN(C)C(=O)CC3CC3)N(C(=O)C3CC3)[C@H]2CO)cc1, the AC50 is reported as > 10 µM (inactive).
C[C@@H]1CN([C@H](C)CO)C(=O)CCCn2cc(nn2)CO[C@@H]1CN(C)C(=O)Nc1ccc2c(c1)OCO2 was tested, and the AC50 was > 10 µM (inactive).
In the case of COc1ccccc1C(=O)N1C[C@@H]2[C@H](c3ccccc31)[C@@H](CO)N2C(=O)Cc1ccccc1, the AC50 is reported as > 10 µM (inactive).
CCC(=O)NC[C@H]1[C@@H](c2ccc(-c3ccc(C#N)cc3)cc2)[C@@H](CO)N1CCC(F)(F)F was tested, and the AC50 was > 10 µM (inactive).
For O=C(CC1CC1)N1[C@H](CO)[C@@H]2c3ccccc3N(S(=O)(=O)c3ccccc3F)C[C@@H]21, the AC50 was > 10 µM (inactive).
C[C@H](CO)N1C[C@H](C)[C@@H](CN(C)S(=O)(=O)c2ccc(-n3cccn3)cc2)OCc2cn(nn2)CCCC1=O was tested, and the AC50 was > 10 µM (inactive).
O=S(=O)(c1ccccc1)N1[C@H](CO)[C@H]2c3ccccc3NC[C@H]21 was tested, and the AC50 was > 10 µM (inactive).
For CC(=O)NC[C@H]1[C@@H](c2ccc(C#CC(C)C)cc2)[C@@H](CO)N1Cc1ccccn1, the AC50 was > 10 µM (inactive).
C[C@@H]1CN([C@H](C)CO)C(=O)CCCn2cc(nn2)CO[C@@H]1CN(C)C(=O)Nc1cccc(C(F)(F)F)c1 was tested, and the AC50 was > 10 µM (inactive).
For COc1ccccc1-c1ccc([C@H]2[C@@H](CO)N(C(C)=O)[C@H]2CN(C)C(C)=O)cc1, the AC50 was > 10 µM (inactive).
With C[C@H](CO)N1C[C@H](C)[C@H](CN(C)Cc2ccc3c(c2)OCCN3C)OCc2cnnn2CCCC1=O the AC50 was > 10 µM (inactive).
In the case of C[C@H]1CN([C@@H](C)CO)C(=O)CCCn2nncc2CO[C@H]1CN(C)C(=O)c1ccc2ccn(C)c2c1, the AC50 is reported as > 10 µM (inactive).
CCN(C[C@@H]1[C@@H](c2ccccc2)[C@H](CO)N1S(C)(=O)=O)C(=O)C1CCCC1 was tested, and the AC50 was > 10 µM (inactive).
In the case of CCCC(=O)N1C[C@@H]2[C@H](c3ccccc31)[C@H](CO)N2C(=O)Nc1ccc(F)cc1, the AC50 is reported as > 10 µM (inactive).

From PubChem BioAssay AID977614 (Broad Institute, 2014)
